ChEMBL document CHEMBL1132879, “High potent and selective arylpiperazine derivatives as ligands for the 5-HT1A receptor” (Bioorg Med Chem Lett, 2000)

Tests used:
[1] = molecular target: Serotonin 1a (5-HT1a) receptor/Adrenergic receptor alpha-1 (Rattus norvegicus) (UniProt P15823+P23944+P43140+P19327); experiment: Selectivity for 5-HT1A serotonin over alpha-1-adrenergic receptors; type: protein assay
[2] = molecular target: T1, 5-hydroxytryptamine receptor 1A (Rattus norvegicus, UniProt P19327); experiment: Displacement of [3H]8-OH-DPAT from 5-hydroxytryptamine 1A receptor of rat hippocampus membranes; type: cell membranes, Membrane
T1 sequence (P19327 whole entry): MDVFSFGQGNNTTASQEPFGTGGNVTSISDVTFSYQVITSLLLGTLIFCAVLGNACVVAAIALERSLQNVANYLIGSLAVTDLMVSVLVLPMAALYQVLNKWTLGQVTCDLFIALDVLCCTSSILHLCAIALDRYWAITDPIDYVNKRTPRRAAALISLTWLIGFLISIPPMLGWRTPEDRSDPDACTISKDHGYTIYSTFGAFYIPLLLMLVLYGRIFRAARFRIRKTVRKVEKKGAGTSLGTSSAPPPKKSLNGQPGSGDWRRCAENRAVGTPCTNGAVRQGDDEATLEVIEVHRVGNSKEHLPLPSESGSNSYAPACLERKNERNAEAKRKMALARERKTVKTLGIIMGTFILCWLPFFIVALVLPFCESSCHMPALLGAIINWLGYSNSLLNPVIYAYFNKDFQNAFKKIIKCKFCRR

[3] = molecular target: T2, Adrenergic receptor alpha-1 (Rattus norvegicus, UniProt P15823+P23944+P43140); experiment: Displacement of [3H]prazosin from Alpha-1 adrenergic receptor of rat cortex membranes; type: cell membranes, Membrane
T2 sequence (P15823 whole entry): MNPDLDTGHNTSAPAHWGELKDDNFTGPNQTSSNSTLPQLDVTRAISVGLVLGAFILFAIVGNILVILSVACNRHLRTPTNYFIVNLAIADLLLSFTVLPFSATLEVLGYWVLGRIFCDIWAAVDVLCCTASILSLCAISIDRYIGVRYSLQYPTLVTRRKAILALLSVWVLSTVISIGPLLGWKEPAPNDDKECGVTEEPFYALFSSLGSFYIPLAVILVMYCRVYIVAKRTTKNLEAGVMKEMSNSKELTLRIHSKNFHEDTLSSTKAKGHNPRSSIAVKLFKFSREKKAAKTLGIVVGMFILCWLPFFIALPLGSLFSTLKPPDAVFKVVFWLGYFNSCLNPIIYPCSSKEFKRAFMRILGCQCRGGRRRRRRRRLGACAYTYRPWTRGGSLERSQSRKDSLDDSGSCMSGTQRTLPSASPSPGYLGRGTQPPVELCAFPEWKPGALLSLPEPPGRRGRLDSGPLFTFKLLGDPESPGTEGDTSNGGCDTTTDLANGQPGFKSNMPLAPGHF
T2 sequence (P23944 whole entry): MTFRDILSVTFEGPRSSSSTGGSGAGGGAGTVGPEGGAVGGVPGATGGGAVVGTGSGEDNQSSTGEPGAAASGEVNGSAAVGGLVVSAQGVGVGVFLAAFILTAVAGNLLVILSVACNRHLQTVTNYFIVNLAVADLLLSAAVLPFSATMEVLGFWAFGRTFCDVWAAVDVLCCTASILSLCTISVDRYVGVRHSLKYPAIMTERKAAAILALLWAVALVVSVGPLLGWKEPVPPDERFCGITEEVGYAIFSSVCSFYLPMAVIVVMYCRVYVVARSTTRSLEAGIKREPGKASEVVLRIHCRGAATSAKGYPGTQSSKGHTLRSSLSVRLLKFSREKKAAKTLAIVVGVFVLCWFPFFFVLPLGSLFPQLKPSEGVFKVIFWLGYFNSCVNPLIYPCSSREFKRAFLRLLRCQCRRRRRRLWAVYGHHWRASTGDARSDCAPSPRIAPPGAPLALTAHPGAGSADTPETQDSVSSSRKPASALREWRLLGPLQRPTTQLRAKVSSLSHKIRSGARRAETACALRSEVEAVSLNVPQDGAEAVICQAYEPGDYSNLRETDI
T2 sequence (P43140 whole entry): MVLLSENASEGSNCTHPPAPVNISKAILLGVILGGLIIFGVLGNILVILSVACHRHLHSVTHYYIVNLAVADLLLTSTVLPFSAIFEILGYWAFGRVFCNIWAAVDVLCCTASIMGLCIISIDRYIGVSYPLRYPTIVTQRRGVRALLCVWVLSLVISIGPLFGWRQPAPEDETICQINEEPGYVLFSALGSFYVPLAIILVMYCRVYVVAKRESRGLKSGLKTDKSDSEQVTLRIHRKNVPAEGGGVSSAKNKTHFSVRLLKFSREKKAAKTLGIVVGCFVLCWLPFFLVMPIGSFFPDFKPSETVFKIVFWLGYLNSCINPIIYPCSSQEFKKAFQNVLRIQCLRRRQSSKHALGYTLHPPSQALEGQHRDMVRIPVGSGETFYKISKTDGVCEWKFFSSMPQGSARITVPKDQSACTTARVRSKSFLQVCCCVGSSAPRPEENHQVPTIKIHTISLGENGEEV

Compound	Selectivity [1]	Ki [2]	Ki [3]
Nn1c(SCCCN2CCN(c3ccccc3[N+](=O)[O-])CC2)nc2sccc2c1=O	13	3 nM	39.87 nM
CCc1cc2c(=O)n(N)c(SCCCN3CCN(c4ccccc4[N+](=O)[O-])CC3)nc2s1	20	9.69 nM	194.8 nM
Nn1c(SCCCN2CCN(c3ncccn3)CC2)nc2sccc2c1=O	73	5.06 nM	366.31 nM
CCOc1ccccc1-c1nnc(SCCCN2CCN(c3ccccc3OC)CC2)s1	4.6	6.84 nM	31.5 nM
Cc1sc2nc(SCCCN3CCN(c4ccccc4[N+](=O)[O-])CC3)n(N)c(=O)c2c1C	53	1.46 nM	123 nM
COc1ccccc1N1CCN(CCCSc2nc3sc(C)c(C)c3c(=O)n2N)CC1	39	0.16 nM	6.26 nM
CCc1cc2c(=O)n(N)c(SCCCN3CCN(c4ncccn4)CC3)nc2s1	207	9.4 nM	1946 nM
Cc1sc2nc(SCCCN3CCN(c4ncccn4)CC3)n(N)c(=O)c2c1C	117	3.72 nM	434 nM
COc1ccccc1N1CCN(CCCSc2nc(N)c3c(C)c(C)sc3n2)CC1	4.4	2.45 nM	10.8 nM

Now from value to molecule:

Selectivity [1]	Ki [2]	Ki [3]	Compound
28	0.26 nM	7.39 nM	COc1ccccc1N1CCN(CCCSc2nc3sc4c(c3c(=O)n2N)CCC4)CC1
14	1.4 nM	19.65 nM	CCCc1cc2c(=O)n(N)c(SCCCN3CCN(c4ccccc4OC)CC3)nc2s1
115	0.19 nM	21.96 nM	CCc1cc2c(=O)n(N)c(SCCCN3CCN(c4ccccc4OC)CC3)nc2s1
3	135 nM	437 nM	CCOc1ccccc1-c1nnc(SCCCN2CCN(c3ccccc3[N+](=O)[O-])CC2)s1
3.8	0.65 nM	2.48 nM	COc1ccccc1N1CCN(CCCSc2nc3sccc3c(=O)n2N)CC1
